From PubChem BioAssay (NCI)
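How tested: cells in 96-well plates exposed to compound for 48 hours at five concentrations. At the TGI there is no net growth.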

Assays:
Experiment in all cases: inhibition of tumour cell growth, NCI panel, 48 h
[1] = test system: HCT-15 colon
[2] = test system: IGROV1 ovarian
[3] = test system: HOP-18 NSCLC
[4] = test system: M19-MEL melanoma
[5] = test system: SN12C renal
[6] = test system: A549 NSCLC
[7] = test system: SW-620 colon
[8] = test system: M14 melanoma
[9] = test system: UO-31 renal
[10] = test system: HCT-116 colon
[11] = test system: DMS 273 small cell lung
[12] = test system: RPMI-8226 leukemia
[13] = test system: HOP-62 NSCLC
[14] = test system: SK-MEL-5 melanoma
[15] = test system: HL-60(TB) leukemia
[16] = test system: NCI-H23 lung
[17] = test system: DMS 114 small cell lung
[18] = test system: OVCAR-4 ovarian
[19] = test system: HOP-92 NSCLC
[20] = test system: OVCAR-5 ovarian
[21] = test system: NCI-H522 lung
[22] = test system: CCRF-CEM leukemia
[23] = test system: OVCAR-8 ovarian
[24] = test system: 786-0 renal
[25] = test system: TK-10 renal
[26] = test system: CAKI-1 renal
[27] = test system: K-562 leukemia
[28] = test system: SK-OV-3 ovarian
[29] = test system: SK-MEL-28 melanoma
[30] = test system: U251 CNS
[31] = test system: SR leukemia
[32] = test system: SF-295 CNS
[33] = test system: LXFL 529 NSCLC
[34] = test system: NCI-H226 lung
[35] = test system: SF-539 CNS
[36] = test system: MALME-3M melanoma
[37] = test system: COLO 205 colon
[38] = test system: SNB-78 CNS
[39] = test system: ACHN renal
[40] = test system: HT29 colon
[41] = test system: UACC-257 melanoma
[42] = test system: LOX IMVI melanoma
[43] = test system: KM12 colon
[44] = test system: OVCAR-3 ovarian
[45] = test system: NCI-H460 lung
[46] = test system: MOLT-4 leukemia
[47] = test system: DLD-1 colon
[48] = test system: SK-MEL-2 melanoma
[49] = test system: SF-268 CNS
[50] = test system: RXF 393 renal
[51] = test system: KM20L2 colon
[52] = test system: SNB-75 CNS
[53] = test system: UACC-62 melanoma

Measured: TGI

CC(=O)Nc1ccc(-c2nnc(SCC(=O)Nc3ccccc3)o2)cc1
> 100 µM: all assays above
